# Results as given in patent publication US11629201B2, “PSMA-binding agents and uses thereof” (ITM Isotope Technologies Munich SE, priority 2017, dated 2023).
# Tests used:
# [1] = test system: PC-3 PIP/flu tumor-bearing mice; experiment: Biodistribution studies in PC-3 PIP/flu tumor-bearing mice; settings: for Tumor-to-blood / Tumor-to-kidney / Tumor-to-liver: PC-3 PIP tumor
# [2] = test system: PSMA-positive PC-3 PIP cells; experiment: Cell uptake and internalization in PSMA-positive PC-3 PIP cells; format: cell-based; settings: 2 h and 4 h time-point, PC-3 PIP cells
compound,measurement,setting,value
"O=C(O)CCC(NC(=O)NC(CCCCNC(=O)C(Cc1ccc2ccccc2c1)NC(=O)C1CCC(CNC(=O)C(CCCCNC(=O)CN2CCN(CC(=O)O)CCN(CC(=O)O)CCN(CC(=O)O)CC2)NC(=O)CCCCCCC(=O)NC(CCCCNC(=O)CCCc2ccc(I)cc2)C(=O)O)CC1)C(=O)O)C(=O)O (centres unmarked) [^177Lu-PSMA-ALB-04, metal not drawn]",Tumor-to-blood,[1]; 1 h p.i.,0.20 ± 0.02
same,Tumor-to-kidney,[1]; 1 h p.i.,0.54 ± 0.09
same,Tumor-to-liver,[1]; 1 h p.i.,0.33 ± 0.06
same,Blood,[1]; 24 h p.i.,55.3 ± 3.10 % IA/g
same,Bone,[1]; 24 h p.i.,8.88 ± 0.19 % IA/g
same,Heart,[1]; 24 h p.i.,22.1 ± 3.70 % IA/g
same,Intestines,[1]; 24 h p.i.,8.13 ± 1.31 % IA/g
same,Kidneys,[1]; 24 h p.i.,41.5 ± 1.44 % IA/g
same,Liver,[1]; 24 h p.i.,17.6 ± 2.04 % IA/g
same,Lung,[1]; 24 h p.i.,40.1 ± 7.77 % IA/g
same,Muscle,[1]; 24 h p.i.,5.82 ± 1.62 % IA/g
same,PC-3 PIP Tumor,[1]; 24 h p.i.,82.8 ± 6.84 % IA/g
same,PC-3 flu Tumor,[1]; 24 h p.i.,14.0 ± 0.60 % IA/g
same,Salivary glands,[1]; 24 h p.i.,12.5 ± 0.42 % IA/g
same,Spleen,[1]; 24 h p.i.,13.6 ± 1.90 % IA/g
same,Stomach,[1]; 24 h p.i.,6.18 ± 0.95 % IA/g
same,Tumor-to-blood,[1]; 24 h p.i.,1.50 ± 0.11
same,Tumor-to-kidney,[1]; 24 h p.i.,2.00 ± 0.11
same,Tumor-to-liver,[1]; 24 h p.i.,4.76 ± 0.67
same,Blood,[1]; 48 h p.i.,38.2 ± 1.48 % IA/g
same,Bone,[1]; 48 h p.i.,6.80 ± 0.67 % IA/g
same,Heart,[1]; 48 h p.i.,13.6 ± 0.36 % IA/g
same,Intestines,[1]; 48 h p.i.,7.27 ± 0.82 % IA/g
same,Kidneys,[1]; 48 h p.i.,38.2 ± 4.10 % IA/g
same,Liver,[1]; 48 h p.i.,13.1 ± 0.67 % IA/g
same,Lung,[1]; 48 h p.i.,24.6 ± 2.02 % IA/g
same,Muscle,[1]; 48 h p.i.,4.62 ± 0.38 % IA/g
same,PC-3 PIP Tumor,[1]; 48 h p.i.,93.2 ± 12.4 % IA/g
same,PC-3 flu Tumor,[1]; 48 h p.i.,12.6 ± 0.82 % IA/g
same,Salivary glands,[1]; 48 h p.i.,10.6 ± 0.42 % IA/g
same,Spleen,[1]; 48 h p.i.,14.0 ± 1.70 % IA/g
same,Stomach,[1]; 48 h p.i.,5.04 ± 0.35 % IA/g
same,Tumor-to-blood,[1]; 48 h p.i.,2.45 ± 0.41
same,Tumor-to-kidney,[1]; 48 h p.i.,2.47 ± 0.50
same,Tumor-to-liver,[1]; 48 h p.i.,7.16 ± 1.16
same,Blood,[1]; 96 h p.i.,11.65 ± 1.22 % IA/g
same,Bone,[1]; 96 h p.i.,2.54 ± 0.31 % IA/g
same,Heart,[1]; 96 h p.i.,4.81 ± 0.29 % IA/g
same,Intestines,[1]; 96 h p.i.,2.36 ± 0.17 % IA/g
same,Kidneys,[1]; 96 h p.i.,15.3 ± 1.49 % IA/g
same,Liver,[1]; 96 h p.i.,4.67 ± 0.82 % IA/g
same,Lung,[1]; 96 h p.i.,9.96 ± 1.44 % IA/g
same,Muscle,[1]; 96 h p.i.,1.56 ± 0.56 % IA/g
same,PC-3 PIP Tumor,[1]; 96 h p.i.,61.4 ± 7.68 % IA/g
same,PC-3 flu Tumor,[1]; 96 h p.i.,5.63 ± 0.37 % IA/g
same,Salivary glands,[1]; 96 h p.i.,4.08 ± 0.44 % IA/g
same,Spleen,[1]; 96 h p.i.,6.76 ± 0.59 % IA/g
same,Stomach,[1]; 96 h p.i.,1.74 ± 0.11 % IA/g
same,Tumor-to-blood,[1]; 96 h p.i.,5.29 ± 0.74
same,Tumor-to-kidney,[1]; 96 h p.i.,4.03 ± 0.56
same,Tumor-to-liver,[1]; 96 h p.i.,13.4 ± 2.88
same,Blood,[1]; 192 h p.i.,3.75 ± 1.49 % IA/g
same,Bone,[1]; 192 h p.i.,1.17 ± 0.61 % IA/g
same,Heart,[1]; 192 h p.i.,1.73 ± 0.70 % IA/g
same,Intestines,[1]; 192 h p.i.,0.67 ± 0.15 % IA/g
same,Kidneys,[1]; 192 h p.i.,8.82 ± 3.83 % IA/g
same,Liver,[1]; 192 h p.i.,2.45 ± 0.81 % IA/g
same,Lung,[1]; 192 h p.i.,4.10 ± 1.77 % IA/g
same,Muscle,[1]; 192 h p.i.,0.71 ± 0.54 % IA/g
same,PC-3 PIP Tumor,[1]; 192 h p.i.,57.6 ± 17.3 % IA/g
same,PC-3 flu Tumor,[1]; 192 h p.i.,3.31 ± 1.43 % IA/g
same,Salivary glands,[1]; 192 h p.i.,1.96 ± 0.73 % IA/g
same,Spleen,[1]; 192 h p.i.,5.22 ± 3.17 % IA/g
same,Stomach,[1]; 192 h p.i.,0.56 ± 0.19 % IA/g
same,Tumor-to-blood,[1]; 192 h p.i.,15.8 ± 3.55
same,Tumor-to-kidney,[1]; 192 h p.i.,6.91 ± 2.24
same,Tumor-to-liver,[1]; 192 h p.i.,23.9 ± 5.12
"Cc1ccc(CCCC(=O)NC(CC(=O)NC(CC(=O)NC(CC(=O)NC(CCCCNC(=O)CN2CCN(CC(=O)O)CCN(CC(=O)O)CCN(CC(=O)O)CC2)C(=O)NCC2CCC(C(=O)NC(Cc3ccc4ccccc4c3)C(=O)NCCCCC(NC(=O)NC(CCC(=O)O)C(=O)O)C(=O)O)CC2)C(=O)O)C(=O)O)C(=O)O)cc1 (centres unmarked) [^177Lu-PSMA-ALB-08, metal not drawn]",internalized fraction / internalization rate versus reference,[2],still comparable to ^177Lu-PSMA-617
same,Blood,[1]; 4 h p.i.,0.41 ± 0.18 % IA/g
same,Bone,[1]; 4 h p.i.,0.16 ± 0.03 % IA/g
same,Heart,[1]; 4 h p.i.,0.19 ± 0.07 % IA/g
same,Intestines,[1]; 4 h p.i.,0.20 ± 0.09 % IA/g
same,Kidneys,[1]; 4 h p.i.,27.2 ± 5.93 % IA/g
same,Liver,[1]; 4 h p.i.,0.27 ± 0.10 % IA/g
same,Lung,[1]; 4 h p.i.,0.48 ± 0.21 % IA/g
same,Muscle,[1]; 4 h p.i.,0.06 ± 0.03 % IA/g
same,PC-3 PIP Tumor,[1]; 4 h p.i.,46.9 ± 16.7 % IA/g
same,PC-3 flu Tumor,[1]; 4 h p.i.,0.25 ± 0.19 % IA/g
same,Salivary glands,[1]; 4 h p.i.,0.19 ± 0.06 % IA/g
same,Spleen,[1]; 4 h p.i.,0.53 ± 0.10 % IA/g
same,Stomach,[1]; 4 h p.i.,0.40 ± 0.25 % IA/g
same,Tumor-to-blood,[1]; 4 h p.i.,116 ± 9.46
same,Tumor-to-kidney,[1]; 4 h p.i.,1.70 ± 0.22
same,Tumor-to-liver,[1]; 4 h p.i.,177 ± 2.72
same,Blood,[1]; 24 h p.i.,0.08 ± 0.01 % IA/g
same,Bone,[1]; 24 h p.i.,0.07 ± 0.02 % IA/g
same,Heart,[1]; 24 h p.i.,0.04 ± 0.01 % IA/g
same,Intestines,[1]; 24 h p.i.,0.03 ± 0.01 % IA/g
same,Kidneys,[1]; 24 h p.i.,13.9 ± 2.32 % IA/g
same,Liver,[1]; 24 h p.i.,0.11 ± 0.02 % IA/g
same,Lung,[1]; 24 h p.i.,0.09 ± 0.02 % IA/g
same,Muscle,[1]; 24 h p.i.,0.02 ± 0.01 % IA/g
same,PC-3 PIP Tumor,[1]; 24 h p.i.,33.0 ± 5.04 % IA/g
same,PC-3 flu Tumor,[1]; 24 h p.i.,0.09 ± 0.05 % IA/g
same,Salivary glands,[1]; 24 h p.i.,0.07 ± 0.05 % IA/g
same,Spleen,[1]; 24 h p.i.,0.10 ± 0.03 % IA/g
same,Stomach,[1]; 24 h p.i.,0.03 ± 0.01 % IA/g
same,Tumor-to-blood,[1]; 24 h p.i.,421 ± 45.7
same,Tumor-to-kidney,[1]; 24 h p.i.,2.39 ± 0.24
same,Tumor-to-liver,[1]; 24 h p.i.,295 ± 40.1
same,Blood,[1]; 72 h p.i.,0.06 ± 0.02 % IA/g
same,Bone,[1]; 72 h p.i.,0.09 ± 0.05 % IA/g
same,Heart,[1]; 72 h p.i.,0.03 ± 0.01 % IA/g
same,Intestines,[1]; 72 h p.i.,0.02 ± 0.01 % IA/g
same,Kidneys,[1]; 72 h p.i.,7.98 ± 0.62 % IA/g
same,Liver,[1]; 72 h p.i.,0.12 ± 0.01 % IA/g
same,Lung,[1]; 72 h p.i.,1.28 ± 2.02 % IA/g
same,Muscle,[1]; 72 h p.i.,0.01 ± 0.01 % IA/g
same,PC-3 PIP Tumor,[1]; 72 h p.i.,24.1 ± 5.37 % IA/g
same,PC-3 flu Tumor,[1]; 72 h p.i.,0.09 ± 0.07 % IA/g
same,Salivary glands,[1]; 72 h p.i.,0.03 ± 0.02 % IA/g
same,Spleen,[1]; 72 h p.i.,0.11 ± 0.05 % IA/g
same,Stomach,[1]; 72 h p.i.,0.02 ± 0.01 % IA/g
same,Tumor-to-blood,[1]; 72 h p.i.,416 ± 89.5
same,Tumor-to-kidney,[1]; 72 h p.i.,3.02 ± 0.68
same,Tumor-to-liver,[1]; 72 h p.i.,207 ± 47.1
